Results: ChEMBL document CHEMBL1909514, “Imidazo[2,1-b]thiazole guanylhydrazones as RSK2 inhibitors” (Eur J Med Chem, 2011)
Activity calls are given as the source filed them. How the calls were made is not given here.

Columns and labels:
[1] = molecular target: ALK tyrosine kinase receptor (Homo sapiens, UniProt Q9UM73)
[2] = system: COLO 205; test: Growth inhibition of human COLO205 cells after 48 hrs by SRB assay; assay type: functional; conditions: COLO 205, 48 h
[3] = system: OVCAR-3; test: Growth inhibition of human OVCAR3 cells after 48 hrs by SRB assay; assay type: functional; conditions: OVCAR-3, 48 h
[4] = system: A498; test: Growth inhibition of human A498 cells after 48 hrs by SRB assay; assay type: functional; conditions: A498, 48 h
[5] = system: HCT-15; test: Growth inhibition of human HCT15 cells after 48 hrs by SRB assay; assay type: functional; conditions: HCT-15, 48 h
[6] = system: HCC 2998; test: Growth inhibition of human HCC2998 cells after 48 hrs by SRB assay; assay type: functional; conditions: HCC 2998, 48 h
[7] = system: Malme-3M; test: Growth inhibition of human MALME-3M cells after 48 hrs by SRB assay; assay type: functional
[8] = system: HOP-92; test: Growth inhibition of human HOP92 cells after 48 hrs by SRB assay; assay type: functional; conditions: HOP-92, 48 h
[9] = system: RXF 393; test: Growth inhibition of human RXF393 cells after 48 hrs by SRB assay; assay type: functional; conditions: RXF 393, 48 h
[10] = system: MDA-MB-468; test: Growth inhibition of human MDA-MB-468 cells after 48 hrs by SRB assay; assay type: functional; conditions: MDA-MB-468, 48 h
[11] = system: DU-145; test: Growth inhibition of human DU145 cells after 48 hrs by SRB assay; assay type: functional; conditions: DU-145, 48 h
[12] = system: SF-295; test: Growth inhibition of human SF295 cells after 48 hrs by SRB assay; assay type: functional; conditions: SF-295, 48 h
[13] = system: NCI-H460; test: Growth inhibition of human NCI-H460 cells after 48 hrs by SRB assay; assay type: functional; conditions: NCI-H460, 48 h
[14] = system: NCI-H23; test: Growth inhibition of human NCI-H23 cells after 48 hrs by SRB assay; assay type: functional; conditions: NCI-H23, 48 h
[15] = system: MOLT-4; test: Growth inhibition of human MOLT4 cells after 48 hrs by SRB assay; assay type: functional; conditions: MOLT-4, 48 h
[16] = system: SN12C; test: Growth inhibition of human SN12C cells after 48 hrs by SRB assay; assay type: functional
[17] = molecular target: Serine/threonine-protein kinase Chk2 (Homo sapiens, UniProt O96017)
[18] = system: BT-549; test: Growth inhibition of human BT549 cells after 48 hrs by SRB assay; assay type: functional; conditions: BT-549, 48 h
[19] = system: EKVX; test: Growth inhibition of human EKVX cells after 48 hrs by SRB assay; assay type: functional
[20] = system: SK-MEL-28; test: Growth inhibition of human SK-MEL-28 cells after 48 hrs by SRB assay; assay type: functional; conditions: SK-MEL-28, 48 h
[21] = system: CAKI-1; test: Growth inhibition of human Caki1 cells after 48 hrs by SRB assay; assay type: functional; conditions: CAKI-1, 48 h
[22] = system: SF-268; test: Growth inhibition of human SF268 cells after 48 hrs by SRB assay; assay type: functional; conditions: SF-268, 48 h
[23] = system: MCF7; test: Growth inhibition of human MCF7 cells after 48 hrs by SRB assay; assay type: functional; conditions: MCF7, 48 h
[24] = system: A549; test: Growth inhibition of human A549 cells after 48 hrs by SRB assay; assay type: functional; conditions: A549, 48 h
[25] = system: OVCAR-4; test: Growth inhibition of human OVCAR4 cells after 48 hrs by SRB assay; assay type: functional; conditions: OVCAR-4, 48 h
[26] = molecular target: Ribosomal protein S6 kinase alpha-3 (Homo sapiens, UniProt P51812)
Description: Inhibition of RSK2 assessed as inhibition of substrate phosphorylation using fluorescent peptide substrate by microplate reader assay

[27] = molecular target: Aurora kinase A (Homo sapiens, UniProt O14965)
[28] = system: TK-10; test: Growth inhibition of human TK10 cells after 48 hrs by SRB assay; assay type: functional; conditions: TK-10, 48 h
[29] = system: SF-539; test: Growth inhibition of human SF539 cells after 48 hrs by SRB assay; assay type: functional; conditions: SF-539, 48 h
[30] = molecular target: T1, Aurora kinase A (Homo sapiens) (UniProt O14965); test: Inhibition of Aurora kinase A assessed as inhibition of substrate phosphorylation using fluorescent peptide substrate up to 100 uM by microplate reader assay
T1 sequence (whole entry): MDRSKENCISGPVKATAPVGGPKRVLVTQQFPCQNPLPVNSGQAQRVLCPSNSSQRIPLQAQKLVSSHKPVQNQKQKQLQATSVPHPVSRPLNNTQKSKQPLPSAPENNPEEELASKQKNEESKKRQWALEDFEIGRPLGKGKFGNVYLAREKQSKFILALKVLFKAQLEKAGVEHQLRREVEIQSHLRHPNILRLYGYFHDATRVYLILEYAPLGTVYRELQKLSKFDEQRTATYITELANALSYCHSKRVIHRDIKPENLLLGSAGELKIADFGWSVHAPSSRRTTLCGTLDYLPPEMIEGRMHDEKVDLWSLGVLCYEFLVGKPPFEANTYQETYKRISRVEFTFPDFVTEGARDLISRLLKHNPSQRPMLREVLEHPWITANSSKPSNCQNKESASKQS

[31] = system: MDA-MB-231; test: Growth inhibition of human MDA-MB-231 cells after 48 hrs by SRB assay; assay type: functional; conditions: MDA-MB-231, 48 h
[32] = read-out: pLC50 (the source's name) (converted)

Chain of Serine/threonine-protein kinase Chk2 (O96017 whole entry): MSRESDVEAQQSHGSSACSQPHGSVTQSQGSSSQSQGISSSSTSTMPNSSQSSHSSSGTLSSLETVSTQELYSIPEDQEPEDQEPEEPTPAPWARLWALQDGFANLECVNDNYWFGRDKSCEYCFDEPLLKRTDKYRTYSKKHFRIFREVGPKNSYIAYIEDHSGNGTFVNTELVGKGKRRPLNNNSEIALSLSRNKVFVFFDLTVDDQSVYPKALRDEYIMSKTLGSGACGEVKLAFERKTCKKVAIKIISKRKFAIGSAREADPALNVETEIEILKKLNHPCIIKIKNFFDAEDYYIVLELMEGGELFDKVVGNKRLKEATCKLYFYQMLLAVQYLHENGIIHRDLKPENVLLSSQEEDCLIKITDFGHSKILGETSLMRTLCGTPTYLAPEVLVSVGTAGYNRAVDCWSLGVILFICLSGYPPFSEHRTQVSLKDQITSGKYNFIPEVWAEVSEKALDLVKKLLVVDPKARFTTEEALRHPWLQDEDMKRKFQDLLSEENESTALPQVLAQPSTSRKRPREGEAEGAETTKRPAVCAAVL
Chain of Ribosomal protein S6 kinase alpha-3 (P51812 whole entry): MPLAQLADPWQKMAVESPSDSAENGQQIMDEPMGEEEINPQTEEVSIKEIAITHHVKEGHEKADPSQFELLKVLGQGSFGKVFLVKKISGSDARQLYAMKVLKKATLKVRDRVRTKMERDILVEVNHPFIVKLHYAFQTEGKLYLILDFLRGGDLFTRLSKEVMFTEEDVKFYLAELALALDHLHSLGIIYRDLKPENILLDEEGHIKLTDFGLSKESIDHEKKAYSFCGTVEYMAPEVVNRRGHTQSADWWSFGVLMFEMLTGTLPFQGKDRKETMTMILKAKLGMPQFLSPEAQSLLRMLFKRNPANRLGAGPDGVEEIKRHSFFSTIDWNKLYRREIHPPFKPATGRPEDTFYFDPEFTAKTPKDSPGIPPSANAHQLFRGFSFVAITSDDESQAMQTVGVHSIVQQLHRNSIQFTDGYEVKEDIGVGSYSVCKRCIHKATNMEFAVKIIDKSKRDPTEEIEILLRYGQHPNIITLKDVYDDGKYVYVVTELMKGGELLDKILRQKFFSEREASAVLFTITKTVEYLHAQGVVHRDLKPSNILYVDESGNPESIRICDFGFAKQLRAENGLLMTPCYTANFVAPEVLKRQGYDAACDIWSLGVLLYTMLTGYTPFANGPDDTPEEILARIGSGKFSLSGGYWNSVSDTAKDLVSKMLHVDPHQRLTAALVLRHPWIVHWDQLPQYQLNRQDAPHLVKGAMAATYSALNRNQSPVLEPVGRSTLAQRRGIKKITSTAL
Chain of ALK tyrosine kinase receptor (Q9UM73 whole entry): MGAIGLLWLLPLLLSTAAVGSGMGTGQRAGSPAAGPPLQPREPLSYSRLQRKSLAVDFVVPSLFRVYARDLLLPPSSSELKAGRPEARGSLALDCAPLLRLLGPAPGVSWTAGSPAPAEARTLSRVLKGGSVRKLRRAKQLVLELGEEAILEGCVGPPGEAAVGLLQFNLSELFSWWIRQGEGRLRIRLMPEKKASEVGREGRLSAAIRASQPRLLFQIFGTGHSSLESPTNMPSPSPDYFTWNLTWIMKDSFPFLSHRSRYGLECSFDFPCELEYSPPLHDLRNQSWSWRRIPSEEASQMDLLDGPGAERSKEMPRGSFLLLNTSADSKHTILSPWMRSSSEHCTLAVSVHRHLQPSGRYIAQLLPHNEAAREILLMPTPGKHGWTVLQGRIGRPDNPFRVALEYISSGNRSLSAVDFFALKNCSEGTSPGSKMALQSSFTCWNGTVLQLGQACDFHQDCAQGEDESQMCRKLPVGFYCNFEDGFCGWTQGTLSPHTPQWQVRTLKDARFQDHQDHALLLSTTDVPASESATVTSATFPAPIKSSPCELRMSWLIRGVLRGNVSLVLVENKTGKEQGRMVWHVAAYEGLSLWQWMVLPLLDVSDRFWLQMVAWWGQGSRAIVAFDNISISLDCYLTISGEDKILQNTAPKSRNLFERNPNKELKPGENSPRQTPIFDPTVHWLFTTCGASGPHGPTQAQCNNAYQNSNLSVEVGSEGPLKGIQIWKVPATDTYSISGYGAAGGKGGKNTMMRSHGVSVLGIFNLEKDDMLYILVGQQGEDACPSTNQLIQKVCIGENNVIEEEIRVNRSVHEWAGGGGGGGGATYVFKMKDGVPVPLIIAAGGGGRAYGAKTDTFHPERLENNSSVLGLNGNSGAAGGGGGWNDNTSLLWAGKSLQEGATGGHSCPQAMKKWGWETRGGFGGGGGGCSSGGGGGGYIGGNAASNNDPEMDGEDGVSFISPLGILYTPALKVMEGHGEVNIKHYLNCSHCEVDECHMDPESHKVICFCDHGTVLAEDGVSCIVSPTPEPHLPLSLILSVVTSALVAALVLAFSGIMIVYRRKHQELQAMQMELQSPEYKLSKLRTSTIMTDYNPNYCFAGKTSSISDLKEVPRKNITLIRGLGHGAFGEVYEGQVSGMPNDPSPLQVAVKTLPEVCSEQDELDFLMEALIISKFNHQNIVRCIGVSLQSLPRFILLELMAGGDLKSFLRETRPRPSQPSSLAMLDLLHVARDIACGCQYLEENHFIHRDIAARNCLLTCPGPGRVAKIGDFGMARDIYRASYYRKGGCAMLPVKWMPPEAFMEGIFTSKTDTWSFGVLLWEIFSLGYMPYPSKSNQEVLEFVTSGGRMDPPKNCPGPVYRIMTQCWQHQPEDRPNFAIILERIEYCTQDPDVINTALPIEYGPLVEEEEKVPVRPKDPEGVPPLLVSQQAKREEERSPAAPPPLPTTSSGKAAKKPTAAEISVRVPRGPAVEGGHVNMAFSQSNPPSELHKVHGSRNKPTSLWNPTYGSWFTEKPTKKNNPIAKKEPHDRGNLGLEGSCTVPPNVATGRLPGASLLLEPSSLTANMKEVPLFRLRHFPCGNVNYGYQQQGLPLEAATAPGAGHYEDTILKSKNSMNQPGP

## N=C(N)N/N=C\c1c(-c2ccc([N+](=O)[O-])cc2)nc2sc(Br)cn12
[1]
  IC50: > 20000 nM
[2]
  GI50: 166 nM
[2]; [32]
  CC50: 646 nM
[2]; read-out: pTGI (converted)
  TGI: 331 nM
[3]
  GI50: 204 nM
[3]; [32]
  CC50: 724 nM
[3]; read-out: pTGI (converted)
  TGI: 380 nM
[4]
  GI50: 1580 nM
[4]; [32]
  CC50: 6030 nM
[4]; read-out: pTGI (converted)
  TGI: 3090 nM
[5]
  GI50: 302 nM
[5]; [32]
  CC50: > 100000 nM
[5]; read-out: pTGI (converted)
  TGI: 26900 nM
[6]
  GI50: 234 nM
[6]; [32]
  CC50: 2340 nM
[6]; read-out: pTGI (converted)
  TGI: 646 nM
[7]
  GI50: 1000 nM
[7]; read-out: pTGI (converted)
  TGI: 4170 nM
[8]
  GI50: 676 nM
[8]; [32]
  CC50: 5130 nM
[8]; read-out: pTGI (converted)
  TGI: 2630 nM
[9]
  GI50: 186 nM
[9]; [32]
  CC50: 759 nM
[9]; read-out: pTGI (converted)
  TGI: 372 nM
[10]
  GI50: 158 nM
[10]; [32]
  CC50: 646 nM
[10]; read-out: pTGI (converted)
  TGI: 3240 nM
[11]
  GI50: 200 nM
[11]; [32]
  CC50: 813 nM
[11]; read-out: pTGI (converted)
  TGI: 398 nM
[12]
  GI50: 575 nM
[12]; [32]
  CC50: 6310 nM
[12]; read-out: pTGI (converted)
  TGI: 4470 nM
[13]
  GI50: 229 nM
[13]; [32]
  CC50: 1820 nM
[13]; read-out: pTGI (converted)
  TGI: 501 nM
[14]
  GI50: 389 nM
[14]; [32]
  CC50: 3980 nM
[14]; read-out: pTGI (converted)
  TGI: 4470 nM
[15]
  GI50: 195 nM
[16]
  GI50: 617 nM
[16]; [32]
  CC50: 5890 nM
[16]; read-out: pTGI (converted)
  TGI: 2820 nM
[17]
  IC50: 1960 nM
[18]
  GI50: 186 nM
[18]; [32]
  CC50: 7240 nM
[18]; read-out: pTGI (converted)
  TGI: 3630 nM
[19]
  GI50: 1070 nM
[19]; [32]
  CC50: 7410 nM
[19]; read-out: pTGI (converted)
  TGI: 4470 nM
[20]
  GI50: 191 nM
[20]; [32]
  CC50: 676 nM
[20]; read-out: pTGI (converted)
  TGI: 363 nM
[21]
  GI50: 234 nM
[21]; [32]
  CC50: 4790 nM
[21]; read-out: pTGI (converted)
  TGI: 1070 nM
[22]
  GI50: 219 nM
[22]; read-out: pTGI (converted)
  TGI: 447 nM
[23]
  GI50: 162 nM
[23]; read-out: pTGI (converted)
  TGI: 324 nM
[24]
  GI50: 182 nM
[24]; [32]
  CC50: 6610 nM
[24]; read-out: pTGI (converted)
  TGI: 347 nM
[25]
  GI50: 191 nM
[25]; [32]
  CC50: 776 nM
[25]; read-out: pTGI (converted)
  TGI: 380 nM
[26]
  IC50: 1230 nM
[27]
  IC50: > 20000 nM
[28]
  GI50: 269 nM
[28]; [32]
  CC50: 4470 nM
[28]; read-out: pTGI (converted)
  TGI: 1100 nM
[29]
  GI50: 372 nM
[29]; [32]
  CC50: 3720 nM
[29]; read-out: pTGI (converted)
  TGI: 1260 nM
[30]
  inhibition: inactive
[31]
  GI50: 275 nM
[31]; [32]
  CC50: 3890 nM
[31]; read-out: pTGI (converted)
  TGI: 851 nM
